Biological target: T1, Dihydrofolate reductase (Bos taurus, UniProt P00376)
T1 sequence (P00376 whole entry): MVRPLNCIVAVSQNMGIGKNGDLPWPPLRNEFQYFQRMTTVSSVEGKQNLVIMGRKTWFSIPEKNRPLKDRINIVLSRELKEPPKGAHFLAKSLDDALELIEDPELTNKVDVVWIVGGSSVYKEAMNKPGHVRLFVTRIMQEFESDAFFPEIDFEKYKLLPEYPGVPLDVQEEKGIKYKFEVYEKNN
Assay: Inhibition Assay
From the text: Inhibition activity using bovine dihydrofolate reductase (DHFR).

Compound | IC50 [nM]
NC1=NC2(CCCC2)N(OCCc2ccccc2)C(N)=N1 [6,8,10-Traiazaspiro[4.5]deca-6,8-diene-7,9-diamine, Ic] | 31
NC1=NC2(CCCC2)N(Cc2ccccc2)C(N)=N1 [6,8,10-Traiazaspiro[4.5]deca-6,8-diene-7,9-diamine, Ia] | > 50000
NC1=NC2(CCCCC2)N(Cc2ccccc2)C(N)=N1 [1,3,5-Triazaspiro[5.5]undeca-1,3-diene-2,4-diamine, IIa] | > 50000
NC1=NC2(CCCCC2)N(OCc2ccccc2)C(N)=N1 [1,3,5-Triazaspiro[5.5]undeca-1,3-diene-2,4-diamine, IIb] | 1790
NC1=NC2(CCCCC2)N(OCCCc2ccccc2)C(N)=N1 [1,3,5-Triazaspiro[5.5]undeca-1,3-diene-2,4-diamine, IId] | 31.9
NC1=NC2(CCCCC2)N(OCCc2ccccc2)C(N)=N1 [1,3,5-Triazaspiro[5.5]undeca-1,3-diene-2,4-diamine, IIc] | 9.4
CN(CCCON1C(N)=NC(N)=NC12CCCC2)c1ccccc1 [6,8,10-Traiazaspiro[4.5]deca-6,8-diene-7,9-diamine, If] | 14.9
NC1=NC2(CCCCC2)N(OCCCOc2ccccc2)C(N)=N1 | 6.9
NC1=NC2(CCCCC2)N(OCCCCOc2ccccc2)C(N)=N1 [1,3,5-Triazaspiro[5.5]undeca-1,3-diene-2,4-diamine, IIg] | 155
NC1=NC2(CCCC2)N(OCCCOc2ccccc2)C(N)=N1 | 2.3
NC1=NC2(CCCC2)N(OCCCCOc2ccccc2)C(N)=N1 [6,8,10-Traiazaspiro[4.5]deca-6,8-diene-7,9-diamine, Ig] | 42.2
CN(CCCON1C(N)=NC(N)=NC12CCCCC2)c1ccccc1 [1,3,5-Triazaspiro[5.5]undeca-1,3-diene-2,4-diamine, IIf] | 41.4
NC1=NC2(CCCC2)N(OCCCc2ccccc2)C(N)=N1 [6,8,10-Traiazaspiro[4.5]deca-6,8-diene-7,9-diamine, Id] | 20.1

Source: BindingDB's records for doi:10.1111/j.1747-0285.2009.00860.x (National University of Singapore, 2009)
